Test results reported in patent US10683286B2, “Furazan-3-carboxylic acid derivatives and use thereof in treatment of cancer” (FREIE UNIVERSITAET BERLIN, priority 2016, dated 2020).

Experiments:
[1] = target: full length human STAT3 protein (Homo sapiens, UniProt P40763); test: FP specificity assay, STAT3; format: binding; conditions: concentrations up to 1 mM
Excerpt: Cell Lines and Culture Condition

[2] = target: T1, protein tyrosine phosphatase SHP2 (Homo sapiens, UniProt Q06124); test: SHP2 inhibition (specificity); format: biochemical; conditions: concentrations up to 1 mM
T1 sequence (Q06124 1-593): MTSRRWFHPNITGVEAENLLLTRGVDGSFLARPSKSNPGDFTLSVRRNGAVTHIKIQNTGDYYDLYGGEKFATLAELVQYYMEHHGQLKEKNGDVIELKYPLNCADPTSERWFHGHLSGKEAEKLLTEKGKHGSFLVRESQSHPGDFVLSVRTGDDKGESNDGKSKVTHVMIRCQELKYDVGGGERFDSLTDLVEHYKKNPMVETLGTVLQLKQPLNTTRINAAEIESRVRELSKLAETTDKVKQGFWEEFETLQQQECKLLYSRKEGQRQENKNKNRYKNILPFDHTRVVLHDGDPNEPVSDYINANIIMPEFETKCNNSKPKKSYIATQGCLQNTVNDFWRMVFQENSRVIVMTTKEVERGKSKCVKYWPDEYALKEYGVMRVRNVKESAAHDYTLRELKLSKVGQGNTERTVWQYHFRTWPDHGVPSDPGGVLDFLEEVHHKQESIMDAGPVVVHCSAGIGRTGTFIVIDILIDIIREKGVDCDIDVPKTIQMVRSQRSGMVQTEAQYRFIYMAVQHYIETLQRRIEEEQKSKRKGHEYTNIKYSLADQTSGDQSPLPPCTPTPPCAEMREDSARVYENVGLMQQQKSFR

[3] = test system: phosphorylated STAT5 dimers; test: ELISA-based STAT5 transcription factor assay of (STAT5)2-DNA complexes; format: biochemical, murine; conditions: cell-free, nuclear extract incubated 1 h at room temperature
Protocol: As an additional confirmation for the mode of action of the STAT5-binding fragments, we finally investigated their potential to interfere directly with the binding of phosphorylated STAT5 dimers to the target DNA sequences of the transcription factor. […] (FIGS. 6C, D) Nuclear extracts and cytoplasmic extracts were prepared from BaF3 FLT3-ITD cells using the Nuclear Extraction kit (Active Motif, Carlsbad, Calif., USA) according to the manufacturer's protocol. STAT5 activity was determined in nuclear protein extracts (20 μg) by the TransAM STATs family kits from Active Motif (Carlsbad, Calif.). All assays were performed following the manufactory instruction after the nuclear protein extraction.

STAT5 dimer = test: Gel shift assay (EMSA) of STAT5 DNA binding; format: biochemical, murine; conditions: BaF3/FLT3-ITD nuclear extract
Protocol: Nuclear extracts and cytoplasmic extracts were prepared from BaF3 FLT3-ITD cells using the Nuclear Extraction kit (Active Motif, Carlsbad, Calif., USA) according to the manufacturer's protocol.
A gel shift assay was conducted using a double-stranded, biotin-labeled oligonucleotide probe containing the consensus binding site for STAT5 (sense strand, 5′-[…]-3′), using the Gelshift Chemiluminescent EMSA kit (Active Motif) according to the manufacturer's protocol. Protein-DNA complexes were resolved on a nondenaturing polyacrylamide gel, transferred to a positively charged nylon membrane, and cross-linked to a membrane using the UV-light cross-linker. After blocking, the membrane was incubated with blocking buffer containing streptavidin conjugated to HRP. After washing, protein-DNA complexes were detected using a chemi-luminescent substrate (Active Motif).

STAT5b-SH2 domain = target: T2, STAT5b-SH2 domain (Homo sapiens, UniProt P51692); test: Competitive fluorescence polarization (FP) assay, STAT5b-SH2 domain
T2 sequence (P51692 136-703): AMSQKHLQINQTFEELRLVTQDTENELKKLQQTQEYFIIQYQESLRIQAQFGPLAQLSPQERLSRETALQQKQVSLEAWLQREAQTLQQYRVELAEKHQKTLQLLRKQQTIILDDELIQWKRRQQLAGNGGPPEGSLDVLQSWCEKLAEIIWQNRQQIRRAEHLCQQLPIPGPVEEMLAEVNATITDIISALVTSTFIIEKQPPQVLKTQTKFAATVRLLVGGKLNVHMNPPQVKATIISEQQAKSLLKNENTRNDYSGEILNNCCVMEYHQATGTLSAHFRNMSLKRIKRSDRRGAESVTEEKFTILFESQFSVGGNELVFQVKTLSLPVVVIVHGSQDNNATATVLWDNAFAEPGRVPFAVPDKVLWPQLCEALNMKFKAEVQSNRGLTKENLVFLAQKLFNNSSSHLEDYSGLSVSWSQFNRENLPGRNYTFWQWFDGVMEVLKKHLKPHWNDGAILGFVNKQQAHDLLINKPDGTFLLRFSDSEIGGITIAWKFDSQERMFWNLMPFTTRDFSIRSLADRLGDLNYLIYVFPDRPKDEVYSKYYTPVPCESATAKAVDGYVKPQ
Protocol: The ChemBioNet fragment collection composed in accordance with the substructure composition of the World Drug Index (WDI) was screened both for enhancing and inhibiting fragments of the phosphopeptide-STAT5 interaction.
The clone for Stat5b expression was kindly provided by Thorsten Berg (MPI, Martinsried). Expression of that truncated version of Stat5b (aa 136-703) cloned into a modified pQE70, with N-terminal MBP-tag and C-terminal His-tag was conducted on autoinduction medium (overnight express/Novagen). Cells were grown to an optical density (O.D.) of 0.3 at 37° C., then the temperature was reduced to 20° C. for further 48 h of expression. […] The protein was purified by Ni-chelating chromatography followed by gel filtration (Superdex 200/10 mM HEPES pH 7.8, 100 mM NaCl, 1 mM EDTA, 1 mM DTT, 10% glycerol). A yield of 15 mg MBP-Stat5b-His per liter of culture was obtained and aliquots (200 μl of 3.2 mg/ml) were quick-frozen and stored at −80° C., ready for use.
17000 compounds from the (FMP) ChemBioNet library were tested in a competitive-based fluorescence polarization (FP) assay to investigate the ability of compounds to bind to STAT5b-SH2 domain by displacing respective fluorophore-labeled peptides (5-carboxyfluorescein-GY (PO3H2) LSLPPW-NH2). The peptide purity was >95% and the screening were performed at room temperature. The final concentration of buffer components used was 10 mM HEPES (pH 7.5), 1 mM EDTA, 0.1% Igepal CA-630, 50 mM NaCl, and 5% DMSO. The final concentration of protein used was at 65 nM which correspond to the dissociation constants (Kd) for the individual protein-peptide interactions in assay buffer. The protein was first added to the black 384 well plate (Corning 3676) followed by test compounds and fluorophore-labeled peptide. The plates were centrifuged, and measured using Safire^2 well plate reader (Tecan, Crailsheim, Germany) after 15 minutes incubation at room temperature. […] For the analysis of the data GraphPad Prism 5 was used. Ligand efficiencies (LE) were calculated using equation derived as followed. LE=−ΔG°/HA with (ΔG°) is the standard free energy of binding in KJ and HA is the number of non-hydrogen atoms.

Sequence of full length human STAT3 protein (P40763 whole entry): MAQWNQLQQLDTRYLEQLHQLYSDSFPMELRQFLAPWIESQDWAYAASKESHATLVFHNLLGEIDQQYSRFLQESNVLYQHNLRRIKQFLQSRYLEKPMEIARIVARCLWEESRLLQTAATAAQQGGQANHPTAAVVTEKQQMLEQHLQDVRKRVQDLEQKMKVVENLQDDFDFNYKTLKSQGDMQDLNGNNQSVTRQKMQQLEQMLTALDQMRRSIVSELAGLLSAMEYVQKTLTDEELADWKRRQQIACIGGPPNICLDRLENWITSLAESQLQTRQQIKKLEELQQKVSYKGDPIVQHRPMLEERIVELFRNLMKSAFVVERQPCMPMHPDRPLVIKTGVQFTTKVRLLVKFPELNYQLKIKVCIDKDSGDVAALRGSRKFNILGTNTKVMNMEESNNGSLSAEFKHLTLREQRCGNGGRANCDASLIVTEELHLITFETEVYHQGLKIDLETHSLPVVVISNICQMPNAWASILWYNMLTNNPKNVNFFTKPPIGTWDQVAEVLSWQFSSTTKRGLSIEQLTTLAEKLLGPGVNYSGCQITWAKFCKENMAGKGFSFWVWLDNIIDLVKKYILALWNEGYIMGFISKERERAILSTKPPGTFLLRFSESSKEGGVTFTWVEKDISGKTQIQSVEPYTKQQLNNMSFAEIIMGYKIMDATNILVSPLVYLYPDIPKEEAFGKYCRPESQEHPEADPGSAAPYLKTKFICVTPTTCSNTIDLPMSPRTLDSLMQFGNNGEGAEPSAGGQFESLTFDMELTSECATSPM

O=C(O)c1nonc1NCn1cnnn1 [Compound 3, 4-((1H-Tetrazol-1-yl)-methylamino)-furazan-3-carboxylic Acid]
binding to the SH2 domain of STAT3 [1]: no binding
inhibition of SHP2 [2]: No inhibition
inhibition of protein-dimer-DNA complex formation [3]: more potent inhibitor than compounds (15) and (6)
STAT5 dimer DNA-binding activity (STAT5 dimer): inhibits
Ki (STAT5b-SH2 domain): 1.4 ± 0.5 µM
ligand efficiency (STAT5b-SH2 domain): 2.23 kJ/mol per non-hydrogen atom
LE (STAT5b-SH2 domain; Table 1, ligand efficiency): 2.23 kJ/mol* atom#
